Biological target: T1, PDE9 (PDE9A) (Homo sapiens, UniProt O76083)
T1 construct: full-length recombinant human PDE9
Assay: PDE-Glo phosphodiesterase luminescence assay with cGMP substrate, recombinant human PDE9A
Format: biochemical

T1 sequence (O76083 whole entry): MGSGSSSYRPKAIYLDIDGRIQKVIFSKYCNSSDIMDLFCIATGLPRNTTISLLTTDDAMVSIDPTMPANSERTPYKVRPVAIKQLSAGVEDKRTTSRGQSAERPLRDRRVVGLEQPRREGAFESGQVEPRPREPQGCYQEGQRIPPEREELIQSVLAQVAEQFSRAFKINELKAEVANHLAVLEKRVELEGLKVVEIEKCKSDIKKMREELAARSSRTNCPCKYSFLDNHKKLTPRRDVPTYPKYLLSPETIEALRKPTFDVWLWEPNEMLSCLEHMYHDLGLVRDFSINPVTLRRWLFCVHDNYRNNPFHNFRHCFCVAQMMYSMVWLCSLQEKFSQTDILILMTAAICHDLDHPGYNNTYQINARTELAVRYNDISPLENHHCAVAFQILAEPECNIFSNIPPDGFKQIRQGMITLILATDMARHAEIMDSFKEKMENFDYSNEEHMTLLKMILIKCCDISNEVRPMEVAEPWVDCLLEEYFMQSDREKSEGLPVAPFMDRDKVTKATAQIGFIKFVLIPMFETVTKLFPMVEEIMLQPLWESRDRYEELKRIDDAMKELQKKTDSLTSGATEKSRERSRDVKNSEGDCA

`CC(C)=CCc1c2c(c3occ(-c4ccc(OS(C)(=O)=O)c(OS(C)(=O)=O)c4)c(=O)c3c1O)C=CC(C)(C)O2` [DB987] gave an IC50 of 5.35 nM.

From publication PMC10587872, “Virtual Screening-Accelerated Discovery of a Phosphodiesterase 9 Inhibitor with Neuroprotective Effects in the Kainate Toxicity In Vitro Model” (ACS Chemical Neuroscience, 2023)
